Like-named read-outs stand apart in the source and are kept apart here. Starred links: 1 amine or outer side, 2 acyl side, 3 side chain; linkers in the order of their positions; H or OH if unused. Non-standard residues stand in square brackets, D forms with d. Residues, ends and D or L forms follow the SMILES beside them. Groups on a side chain read outwards from the residue. *: point of attachment. C20 diacid = O=C(O)CCCCCCCCCCCCCCCCCCC(=O)*; γGlu = O=C(O)[C@H](CCC(=O)[*:2])N[*:1]; NMeI = CC[C@H](C)[C@H](NC)C(=O)O; Nle = CCCC[C@H](N)C(=O)O; AEEA = NCCOCCOCC(=O)O; Aib = CC(C)(N)C(=O)O
Assays:
hCRHR2 = target: T1, hCRHR2 (Homo sapiens, UniProt Q13324); assay: HTRF cAMP assay, determination of hCRHR2 potency (peptide libraries 5 conc., purified peptides 11 conc.); type: cell-based
T1 sequence (Q13324 1-411): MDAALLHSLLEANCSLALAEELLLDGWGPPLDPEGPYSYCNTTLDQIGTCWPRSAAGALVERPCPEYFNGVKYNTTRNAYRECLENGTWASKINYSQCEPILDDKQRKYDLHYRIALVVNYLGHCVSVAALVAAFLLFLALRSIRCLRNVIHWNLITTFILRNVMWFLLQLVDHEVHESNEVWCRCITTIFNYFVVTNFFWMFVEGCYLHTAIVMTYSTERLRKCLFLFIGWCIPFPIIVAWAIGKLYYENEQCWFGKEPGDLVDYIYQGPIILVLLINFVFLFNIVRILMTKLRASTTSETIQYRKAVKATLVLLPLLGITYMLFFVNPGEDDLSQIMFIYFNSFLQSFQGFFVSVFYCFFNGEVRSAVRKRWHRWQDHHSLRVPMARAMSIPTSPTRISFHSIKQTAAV
In short: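 CHO-K1 cells stably expressing human CRHR2 were thawed from frozen stocks immediately before use and assayed in suspension with agonist peptides. cAMP was measured by time-resolved FRET in a competitive immunoassay between cryptate-labelled anti-cAMP antibody and d2-labelled cAMP. EC50 values came from nonlinear regression, sigmoid variable-slope fit.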

hCRHR1 = target: T2, hCRHR1 (Homo sapiens, UniProt P34998); assay: HTRF cAMP assay, determination of hCRHR1 potency (peptide libraries 5 conc., purified peptides 11 conc.); type: cell-based
T2 sequence (P34998 24-415): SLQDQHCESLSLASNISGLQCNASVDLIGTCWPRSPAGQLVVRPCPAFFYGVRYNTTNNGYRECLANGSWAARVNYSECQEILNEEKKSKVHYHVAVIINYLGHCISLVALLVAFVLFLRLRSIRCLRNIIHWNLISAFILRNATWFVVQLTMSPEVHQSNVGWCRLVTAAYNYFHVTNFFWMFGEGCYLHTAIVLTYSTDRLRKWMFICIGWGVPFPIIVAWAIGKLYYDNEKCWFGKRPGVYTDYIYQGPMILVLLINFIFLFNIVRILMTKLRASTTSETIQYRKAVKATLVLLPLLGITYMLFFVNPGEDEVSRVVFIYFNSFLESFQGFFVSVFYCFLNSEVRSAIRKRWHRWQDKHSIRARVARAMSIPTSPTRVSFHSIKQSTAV
In short: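 CHO-K1 cells stably expressing human CRHR1, thawed from frozen stocks just before use, were stimulated in suspension with agonist peptides. cAMP was measured by HTRF competitive immunoassay (cryptate anti-cAMP antibody vs d2-cAMP).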

[1] = library peptides, matched molecular pairs L vs Nle in position X^38, read-out: Potency hCRHR2 pEC50 (converted)
[2] = library peptides, matched molecular pairs L vs Nle in position X^38, read-out: Potency hCRHR1 pEC50 (converted)
[3] = Table 4, library peptides having X^38 = Nle, read-out: hCRHR2 pEC50 (converted)
[4] = Table 4, library peptides having X^38 = Nle, read-out: hCRHR1 pEC50 (converted)

| SMILES | EC50 (hCRHR2; [1]) | EC50 (hCRHR1; [2]) | EC50 (hCRHR2; [3]) | EC50 (hCRHR1; [4]) | Selectivity ratio (hCRHR1/ hCRHR2) (hCRHR2; Table 5) | EC50 (hCRHR2; Table 5, purified peptides, read-out: hCRHR2 EC50) | EC50 (hCRHR1; Table 5, purified peptides, read-out: hCRHR1 EC50) |
| --- | --- | --- | --- | --- | --- | --- | --- |
| CC[C@H](C)[C@H](N)C(=O)N[C@H](C(=O)N[C@@H](CC(C)C)C(=O)N[C@@H](CO)C(=O)N[C@@H](CC(C)C)C(=O)N[C@@H](CC(=O)O)C(=O)N[C@H](C(=O)N1CCC[C@H]1C(=O)N[C@H](C(=O)NCC(=O)N[C@@H](CC(C)C)C(=O)N[C@@H](CC(C)C)C(=O)N[C@@H](CCC(N)=O)C(=O)N[C@H](C(=O)N[C@@H](CC(C)C)C(=O)N[C@@H](CC(C)C)C(=O)N[C@@H](CCC(=O)O)C(=O)N[C@@H](CCC(N)=O)C(=O)N[C@@H](C)C(=O)N[C@@H](CCCNC(=N)N)C(=O)N[C@@H](C)C(=O)N[C@@H](CCCNC(=N)N)C(=O)N[C@@H](C)C(=O)N[C@@H](CC(C)C)C(=O)N[C@@H](CCCNC(=N)N)C(=O)N[C@@H](CCC(=O)O)C(=O)N[C@@H](CCC(=O)O)C(=O)N[C@@H](C)C(=O)N[C@@H](CCCCNC(=O)COCCOCCNC(=O)COCCOCCNC(=O)CC[C@H](NC(=O)CC[C@H](NC(=O)CCCCCCCCCCCCCCCCCCC(=O)O)C(=O)O)C(=O)O)C(=O)N[C@H](C(=O)N[C@@H](CC(N)=O)C(=O)N[C@@H](C)C(=O)N[C@@H](CCC(=O)O)C(=O)N[C@H](C(=O)N[C@@H](CC(C)C)C(=O)N[C@@H](C)C(=O)N[C@@H](CCC(=O)O)C(=O)N[C@H](C(N)=O)C(C)C)[C@@H](C)CC)[C@@H](C)O)[C@@H](C)CC)[C@@H](C)CC)C(C)C)C(C)C [compound 50] (H-IVLSLDVPIGLLQILLEQARARALREEAK([AEEA-AEEA-γGlu-γGlu-C20 diacid])TNAEILAEV-NH2) | 2 nM | 158000 nM | – | – | – | – | – |
| CCCC[C@H](NC(=O)[C@@H](NC(=O)[C@H](CCC(=O)O)NC(=O)[C@H](C)NC(=O)[C@H](CC(N)=O)NC(=O)[C@@H](NC(=O)[C@H](CCCCNC(=O)COCCOCCNC(=O)COCCOCCNC(=O)CC[C@H](NC(=O)CC[C@H](NC(=O)CCCCCCCCCCCCCCCCCCC(=O)O)C(=O)O)C(=O)O)NC(=O)[C@H](C)NC(=O)[C@H](CCC(N)=O)NC(=O)[C@H](CCC(N)=O)NC(=O)[C@H](CCCNC(=N)N)NC(=O)[C@H](CC(C)C)NC(=O)[C@H](C)NC(=O)[C@H](CCC(=O)O)NC(=O)[C@H](C)NC(=O)[C@H](CCCNC(=N)N)NC(=O)[C@H](C)NC(=O)[C@H](CCC(N)=O)NC(=O)[C@H](CCC(=O)O)NC(=O)[C@H](CC(C)C)NC(=O)[C@H](CC(C)C)NC(=O)[C@@H](NC(=O)[C@H](CCC(N)=O)NC(=O)[C@H](CC(C)C)NC(=O)[C@H](CC(C)C)NC(=O)CNC(=O)[C@@H](NC(=O)[C@@H]1CCCN1C(=O)[C@@H](NC(=O)[C@H](CC(=O)O)NC(=O)[C@H](CC(C)C)NC(=O)[C@H](CO)NC(=O)[C@H](CC(C)C)NC(=O)[C@@H](NC(=O)[C@@H](N)[C@@H](C)CC)C(C)C)C(C)C)[C@@H](C)CC)[C@@H](C)CC)[C@@H](C)O)[C@@H](C)CC)C(=O)N[C@@H](C)C(=O)N[C@@H](CCC(=O)O)C(=O)N[C@H](C(N)=O)C(C)C [compound 59] (H-IVLSLDVPIGLLQILLEQARAEALRQQAK([AEEA-AEEA-γGlu-γGlu-C20 diacid])TNAEI[Nle]AEV-NH2) | 0.158 nM | 5.01 nM | – | – | – | – | – |
| CCCC[C@H](NC(=O)[C@@H](NC(=O)[C@H](CCC(=O)O)NC(=O)C(C)(C)NC(=O)[C@H](CC(N)=O)NC(=O)[C@@H](NC(=O)[C@H](CCCCNC(=O)COCCOCCNC(=O)COCCOCCNC(=O)CC[C@H](NC(=O)CC[C@H](NC(=O)CCCCCCCCCCCCCCCCCCC(=O)O)C(=O)O)C(=O)O)NC(=O)[C@H](C)NC(=O)[C@H](CCC(N)=O)NC(=O)[C@H](CCC(=O)O)NC(=O)[C@H](CCCNC(=N)N)NC(=O)[C@H](C)NC(=O)[C@H](C)NC(=O)[C@H](CCCNC(=N)N)NC(=O)[C@H](C)NC(=O)[C@H](CCCNC(=N)N)NC(=O)[C@H](C)NC(=O)[C@H](CCC(N)=O)NC(=O)[C@H](CCCCN)NC(=O)[C@H](CC(C)C)NC(=O)[C@H](CC(C)C)NC(=O)[C@@H](NC(=O)[C@H](CCC(N)=O)NC(=O)[C@H](CC(C)C)NC(=O)[C@H](CC(C)C)NC(=O)CNC(=O)[C@@H](NC(=O)[C@@H]1CCCN1C(=O)[C@@H](NC(=O)[C@H](CC(=O)O)NC(=O)[C@H](CC(C)C)NC(=O)[C@H](CO)NC(=O)[C@H](CC(C)C)NC(=O)[C@@H](NC(=O)[C@@H](NC)[C@@H](C)CC)C(C)C)C(C)C)[C@@H](C)CC)[C@@H](C)CC)[C@@H](C)O)[C@@H](C)CC)C(=O)N[C@@H](C)C(=O)N[C@@H](CCC(=O)O)C(=O)N[C@H](C(N)=O)C(C)C [compound 230] (H-[NMeI]VLSLDVPIGLLQILLKQARARAAREQAK([AEEA-AEEA-γGlu-γGlu-C20 diacid])TN[Aib]EI[Nle]AEV-NH2) | – | – | 0.0501 nM | 31600 nM | – | – | – |
| CCCC[C@H](NC(=O)[C@@H](NC(=O)[C@H](CCC(=O)O)NC(=O)[C@H](C)NC(=O)[C@H](CC(N)=O)NC(=O)[C@@H](NC(=O)[C@H](CCCCNC(=O)COCCOCCNC(=O)COCCOCCNC(=O)CC[C@H](NC(=O)CC[C@H](NC(=O)CCCCCCCCCCCCCCCCCCC(=O)O)C(=O)O)C(=O)O)NC(=O)[C@H](C)NC(=O)[C@H](CCC(N)=O)NC(=O)[C@H](CCC(=O)O)NC(=O)[C@H](CCCNC(=N)N)NC(=O)[C@H](C)NC(=O)[C@H](C)NC(=O)[C@H](CCCNC(=N)N)NC(=O)[C@H](C)NC(=O)[C@H](CCCNC(=N)N)NC(=O)[C@H](C)NC(=O)[C@H](CCC(N)=O)NC(=O)[C@H](CO)NC(=O)[C@H](CC(C)C)NC(=O)[C@H](CC(C)C)NC(=O)[C@@H](NC(=O)[C@H](CCC(N)=O)NC(=O)[C@H](CC(C)C)NC(=O)[C@H](CC(C)C)NC(=O)CNC(=O)[C@@H](NC(=O)[C@@H]1CCCN1C(=O)[C@@H](NC(=O)[C@H](CC(=O)O)NC(=O)[C@H](CC(C)C)NC(=O)[C@H](CO)NC(=O)[C@H](CC(C)C)NC(=O)[C@@H](NC(=O)[C@@H](N)[C@@H](C)CC)C(C)C)C(C)C)[C@@H](C)CC)[C@@H](C)CC)[C@@H](C)O)[C@@H](C)CC)C(=O)N[C@@H](C)C(=O)N[C@@H](CCC(=O)O)C(=O)N[C@H](C(N)=O)[C@@H](C)CC [compound 89] (H-IVLSLDVPIGLLQILLSQARARAAREQAK([AEEA-AEEA-γGlu-γGlu-C20 diacid])TNAEI[Nle]AEI-NH2) | 0.398 nM | 398000 nM | – | – | >9091 | 0.55 nM | > 5000 nM |
| CCCC[C@H](NC(=O)[C@@H](NC(=O)[C@H](CCC(=O)O)NC(=O)C(C)(C)NC(=O)[C@H](CC(N)=O)NC(=O)[C@@H](NC(=O)[C@H](CCCCNC(=O)COCCOCCNC(=O)COCCOCCNC(=O)CC[C@H](NC(=O)CC[C@H](NC(=O)CCCCCCCCCCCCCCCCCCC(=O)O)C(=O)O)C(=O)O)NC(=O)[C@H](C)NC(=O)[C@H](CCC(N)=O)NC(=O)[C@H](CCC(=O)O)NC(=O)[C@H](CCCNC(=N)N)NC(=O)[C@H](C)NC(=O)[C@H](C)NC(=O)[C@H](CCCNC(=N)N)NC(=O)[C@H](C)NC(=O)[C@H](CCCNC(=N)N)NC(=O)[C@H](C)NC(=O)[C@H](CCC(N)=O)NC(=O)[C@@H](NC(=O)[C@H](CC(C)C)NC(=O)[C@H](CC(C)C)NC(=O)[C@@H](NC(=O)[C@H](CCC(N)=O)NC(=O)[C@H](CC(C)C)NC(=O)[C@H](CC(C)C)NC(=O)CNC(=O)[C@@H](NC(=O)[C@@H]1CCCN1C(=O)[C@@H](NC(=O)[C@H](CC(=O)O)NC(=O)[C@H](CC(C)C)NC(=O)[C@H](CO)NC(=O)[C@H](CC(C)C)NC(=O)[C@@H](NC(=O)[C@@H](NC)[C@@H](C)CC)C(C)C)C(C)C)[C@@H](C)CC)[C@@H](C)CC)[C@@H](C)CC)[C@@H](C)O)[C@@H](C)CC)C(=O)N[C@@H](C)C(=O)N[C@@H](CCC(=O)O)C(=O)N[C@H](C(N)=O)C(C)C [compound 209] (H-[NMeI]VLSLDVPIGLLQILLIQARARAAREQAK([AEEA-AEEA-γGlu-γGlu-C20 diacid])TN[Aib]EI[Nle]AEV-NH2) | – | – | 0.02 nM | 3160 nM | – | – | – |

From patent EP4810052A2, “HCRHR2 SELECTIVE POLYPEPTIDES” (Gubra A/S, priority 2023, dated 2026)
